Data published in the supplement of paper PMC9663587.

Assays:
[1] = compound: CCc1cnn2c(NCc3ccc[n+]([O-])c3)cc(N3CCCC[C@H]3CCO)nc12
[2] = compound: T1, CN(C)C(=O)c1cc2cnc(Nc3ccc(N4CCNCC4)cn3)nc2n1C1CCCC1 [LEE011/Ribociclib]
[3] = compound: COc1cccc2c1C(=O)c1c(O)c3c(c(O)c1C2=O)C[C@@](O)(C(=O)CO)C[C@@H]3O[C@H]1C[C@H](N)[C@H](O)[C@H](C)O1 [Doxorubicin]
[4] = compound: CS(=O)(=O)N1CCN(Cc2cc3nc(-c4cccc5[nH]ncc45)nc(N4CCOCC4)c3s2)CC1 [Pictilisib/GDC0941]
[5] = compound: Cc1cc(Nc2ncc(Cl)c(Nc3ccccc3S(=O)(=O)C(C)C)n2)c(OC(C)C)cc1C1CCNCC1 [Ceritinib/LDK378]
[6] = compound: Cc1nn(C)c(COc2ccc(N3CCN(S(=O)(=O)N(C)C)CC3)cc2)c1-c1cccc2c(CCCOc3cccc4ccccc34)c(C(=O)O)n(CCN3CCOCC3)c12
[7] = compound: C=CC(=O)Nc1ccc(C(=O)Nc2[nH]nc3c2CN(C(=O)N[C@H](CN(C)C)c2ccccc2)C3(C)C)cc1 [YKL-5-124]; test: increase in dead-cell fraction, 72 h; higher = more death;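 also: breast cancer cell lines in 384-well plates, stained with Hoechst plus LIVE/DEAD far red dye and imaged, cells above an LDR intensity threshold counted dead, Hoechst-negative corpses included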
[8] = compound: CC(=O)c1c(C)c2cnc(Nc3ccc(N4CCN(CCOCCOCCOCCNC(=O)COc5cccc6c5C(=O)N(C5CCC(=O)NC5=O)C6=O)CC4)cn3)nc2n(C2CCCC2)c1=O [BSJ-03-123]; test: as above
[9] = compound: CC(=O)c1c(C)c2cnc(Nc3ccc(N4CCNCC4)cn3)nc2n(C2CCCC2)c1=O; test: as above
[10] = compound: CCN1CCN(Cc2ccc(Nc3ncc(F)c(-c4cc(F)c5nc(C)n(C(C)C)c5c4)n3)nc2)CC1; test: as above
[11] = compound: CCOc1cc2ncc(C#N)c(Nc3ccc(OCc4ccccn4)c(Cl)c3)c2cc1NC(=O)/C=C/CN(C)C [Neratinib/HKI272]; test: as above
[12] = compound: CCc1cnn2c(NCc3ccc[n+]([O-])c3)cc(N3CCCC[C@H]3CCO)nc12; test: as above
[13] = compound: T1, LEE011/Ribociclib; test: as above
[14] = compound: CN(C)C/C=C/C(=O)Nc1ccc(C(=O)N2CCC[C@@H](Nc3ncc(Cl)c(-c4c[nH]c5ccccc45)n3)C2)cc1 [THZ531]; test: as above
[15] = compound: CN(C)C/C=C/C(=O)Nc1ccc(C(=O)Nc2cccc(Nc3ncc(Cl)c(-c4c[nH]c5ccccc45)n3)c2)cc1 [THZ1]; test: as above
[16] = compound: CN1CC[C@H](c2c(O)cc(O)c3c(=O)cc(-c4ccccc4Cl)oc23)[C@H](O)C1 [Flavopiridol]; test: as above
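For GR50, 72 h in this document: breast cancer and non-malignant breast epithelial cell lines, Deep Dye Drop or Dye Drop imaging, nine half-log doses, GR normalized to time-zero plates and DMSO-only controls.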

For UACC812, which “GR50, 72 h” value [1] is on record?
The value was 0.0303 µM.

And the “GR50, 72 h” value [2]?
The value was 0.0124 µM.

And the “GR50, 72 h” value [3]?
Its value is 0.00203 µM.

What about the “GR50, 72 h” value [4] of the same cell line?
Its value is 0.106 µM.

What about the “GR50, 72 h” value [5] of the same cell line?
Its value is 3.48 µM.

What about the “GR50, 72 h” value [6] of the same cell line?
The value was greater than 10 µM.

What about the “increase in dead-cell fraction” value ([7]; 0.001 µM) of the same cell line?
Its value is 0.0021.

What about the “increase in dead-cell fraction” value ([7]; 0.003162 µM) of the same cell line?
Its value is 0.0107.

What about the “increase in dead-cell fraction” value ([7]; 0.01 µM) of the same cell line?
Its value is 0.0182.

And the “increase in dead-cell fraction” value ([7]; 0.03162 µM)?
Its value is 0.0223.

What about the “increase in dead-cell fraction” value ([7]; 0.1 µM) of the same cell line?
Its value is 0.0246.

And the “increase in dead-cell fraction” value ([7]; 0.3162 µM)?
Its value is 0.0283.

What about the “increase in dead-cell fraction” value ([7]; 1 µM) of the same cell line?
Its value is 0.0151.

What about the “increase in dead-cell fraction” value ([7]; 3.162 µM) of the same cell line?
Its value is 0.027.

What about the “increase in dead-cell fraction” value ([7]; 10 µM) of the same cell line?
The value was 0.0485.

What about the “increase in dead-cell fraction” value ([8]; 0.001 µM) of the same cell line?
The value was 0.0002.

What about the “increase in dead-cell fraction” value ([8]; 0.003162 µM) of the same cell line?
The value was 0.0007.

What about the “increase in dead-cell fraction” value ([8]; 0.01 µM) of the same cell line?
Its value is 0.0021.

And the “increase in dead-cell fraction” value ([8]; 0.03162 µM)?
The value was 0.0004.

And the “increase in dead-cell fraction” value ([8]; 0.1 µM)?
Its value is 0.0012.

What about the “increase in dead-cell fraction” value ([8]; 0.3162 µM) of the same cell line?
The value was -0.0006.

What about the “increase in dead-cell fraction” value ([8]; 1 µM) of the same cell line?
The value was -0.0002.

And the “increase in dead-cell fraction” value ([8]; 3.162 µM)?
The value was 0.0096.

What about the “increase in dead-cell fraction” value ([8]; 10 µM) of the same cell line?
The value was 0.0406.

What about the “increase in dead-cell fraction” value ([9]; 0.0003162 µM) of the same cell line?
Its value is -0.0049.

What about the “increase in dead-cell fraction” value ([9]; 0.001 µM) of the same cell line?
The value was 0.0002.

And the “increase in dead-cell fraction” value ([9]; 0.003162 µM)?
Its value is -0.0042.

What about the “increase in dead-cell fraction” value ([9]; 0.01 µM) of the same cell line?
The value was 0.005.

And the “increase in dead-cell fraction” value ([9]; 0.03162 µM)?
The value was 0.0019.

What about the “increase in dead-cell fraction” value ([9]; 0.1 µM) of the same cell line?
Its value is 0.0099.

And the “increase in dead-cell fraction” value ([9]; 0.3162 µM)?
The value was 0.0073.

What about the “increase in dead-cell fraction” value ([9]; 1 µM) of the same cell line?
The value was 0.0136.

And the “increase in dead-cell fraction” value ([9]; 3.162 µM)?
The value was 0.0146.

What about the “increase in dead-cell fraction” value ([10]; 0.001 µM) of the same cell line?
The value was -0.0019.

What about the “increase in dead-cell fraction” value ([10]; 0.003162 µM) of the same cell line?
The value was 0.0028.

What about the “increase in dead-cell fraction” value ([10]; 0.01 µM) of the same cell line?
The value was 0.0044.

What about the “increase in dead-cell fraction” value ([10]; 0.03162 µM) of the same cell line?
The value was 0.0186.

And the “increase in dead-cell fraction” value ([10]; 0.1 µM)?
The value was 0.0202.

What about the “increase in dead-cell fraction” value ([10]; 0.3162 µM) of the same cell line?
Its value is 0.0231.

And the “increase in dead-cell fraction” value ([10]; 1 µM)?
Its value is 0.0272.

What about the “increase in dead-cell fraction” value ([10]; 3.162 µM) of the same cell line?
The value was 0.0144.

And the “increase in dead-cell fraction” value ([10]; 10 µM)?
The value was 0.073.

What about the “increase in dead-cell fraction” value ([11]; 0.0003162 µM) of the same cell line?
The value was -0.0016.

What about the “increase in dead-cell fraction” value ([11]; 0.001 µM) of the same cell line?
Its value is 0.0009.

What about the “increase in dead-cell fraction” value ([11]; 0.003162 µM) of the same cell line?
The value was 0.0017.

And the “increase in dead-cell fraction” value ([11]; 0.01 µM)?
Its value is 0.0044.

What about the “increase in dead-cell fraction” value ([11]; 0.03162 µM) of the same cell line?
Its value is 0.0198.

And the “increase in dead-cell fraction” value ([11]; 0.1 µM)?
The value was 0.0311.

And the “increase in dead-cell fraction” value ([11]; 0.3162 µM)?
Its value is 0.0666.

What about the “increase in dead-cell fraction” value ([11]; 1 µM) of the same cell line?
The value was 0.0547.

And the “increase in dead-cell fraction” value ([11]; 3.162 µM)?
Its value is 0.114.

And the “increase in dead-cell fraction” value ([12]; 0.0001 µM)?
Its value is -0.0048.

And the “increase in dead-cell fraction” value ([12]; 0.0003162 µM)?
The value was -0.0023.

And the “increase in dead-cell fraction” value ([12]; 0.001 µM)?
The value was -0.0065.

What about the “increase in dead-cell fraction” value ([12]; 0.003162 µM) of the same cell line?
Its value is -0.0073.

And the “increase in dead-cell fraction” value ([12]; 0.01 µM)?
The value was -0.007.

And the “increase in dead-cell fraction” value ([12]; 0.03162 µM)?
Its value is 0.0324.

What about the “increase in dead-cell fraction” value ([12]; 0.1 µM) of the same cell line?
Its value is 0.478.

And the “increase in dead-cell fraction” value ([12]; 0.3162 µM)?
Its value is 0.529.

And the “increase in dead-cell fraction” value ([12]; 1 µM)?
The value was 0.523.

And the “increase in dead-cell fraction” value ([13]; 0.001 µM)?
Its value is 0.0064.

What about the “increase in dead-cell fraction” value ([13]; 0.003162 µM) of the same cell line?
The value was 0.0022.

What about the “increase in dead-cell fraction” value ([13]; 0.01 µM) of the same cell line?
The value was 0.0036.

And the “increase in dead-cell fraction” value ([13]; 0.03162 µM)?
The value was 0.0049.

What about the “increase in dead-cell fraction” value ([13]; 0.1 µM) of the same cell line?
The value was 0.0102.

And the “increase in dead-cell fraction” value ([13]; 0.3162 µM)?
Its value is 0.0156.

And the “increase in dead-cell fraction” value ([13]; 1 µM)?
The value was 0.0075.

What about the “increase in dead-cell fraction” value ([13]; 3.162 µM) of the same cell line?
The value was 0.017.

What about the “increase in dead-cell fraction” value ([13]; 10 µM) of the same cell line?
Its value is 0.0125.

And the “increase in dead-cell fraction” value ([14]; 0.0001 µM)?
Its value is 0.0045.

What about the “increase in dead-cell fraction” value ([14]; 0.0003162 µM) of the same cell line?
The value was 0.0009.

And the “increase in dead-cell fraction” value ([14]; 0.001 µM)?
The value was 0.0012.

What about the “increase in dead-cell fraction” value ([14]; 0.003162 µM) of the same cell line?
Its value is -0.0009.

What about the “increase in dead-cell fraction” value ([14]; 0.01 µM) of the same cell line?
The value was 0.0008.

And the “increase in dead-cell fraction” value ([14]; 0.03162 µM)?
The value was -0.0001.

And the “increase in dead-cell fraction” value ([14]; 0.1 µM)?
Its value is -0.0004.

And the “increase in dead-cell fraction” value ([14]; 0.3162 µM)?
Its value is 0.0004.

What about the “increase in dead-cell fraction” value ([14]; 1 µM) of the same cell line?
The value was 0.0127.

And the “increase in dead-cell fraction” value ([15]; 0.0001 µM)?
Its value is -0.003.

And the “increase in dead-cell fraction” value ([15]; 0.0003162 µM)?
The value was 0.0027.

What about the “increase in dead-cell fraction” value ([15]; 0.001 µM) of the same cell line?
The value was -0.0004.

And the “increase in dead-cell fraction” value ([15]; 0.003162 µM)?
The value was 0.0019.

And the “increase in dead-cell fraction” value ([15]; 0.01 µM)?
Its value is 0.0019.

And the “increase in dead-cell fraction” value ([15]; 0.03162 µM)?
The value was -0.0013.

And the “increase in dead-cell fraction” value ([15]; 0.1 µM)?
Its value is -0.0018.

And the “increase in dead-cell fraction” value ([15]; 0.3162 µM)?
Its value is 0.0001.

And the “increase in dead-cell fraction” value ([15]; 1 µM)?
Its value is 0.0639.

And the “increase in dead-cell fraction” value ([16]; 0.0001 µM)?
The value was 0.0015.

And the “increase in dead-cell fraction” value ([16]; 0.0003162 µM)?
Its value is -0.0016.

And the “increase in dead-cell fraction” value ([16]; 0.001 µM)?
The value was 0.0074.

And the “increase in dead-cell fraction” value ([16]; 0.003162 µM)?
Its value is 0.0022.

And the “increase in dead-cell fraction” value ([16]; 0.01 µM)?
The value was -0.0031.

What about the “increase in dead-cell fraction” value ([16]; 0.03162 µM) of the same cell line?
Its value is -0.0033.

And the “increase in dead-cell fraction” value ([16]; 0.1 µM)?
The value was 0.0023.

And the “increase in dead-cell fraction” value ([16]; 0.3162 µM)?
The value was 0.0692.

What about the “increase in dead-cell fraction” value ([16]; 1 µM) of the same cell line?
Its value is 0.403.
